Test results: ChEMBL document CHEMBL1127907, “Design of a potent 5-HT4 receptor agonist with nanomolar affinity” (Bioorg Med Chem Lett, 1994)

Experiments:
[1] = biological target: T1, 5-hydroxytryptamine receptor 4 (Cavia porcellus, UniProt O70528); test: 5-hydroxytryptamine 4 receptor antagonist activity expressed as the concentration which produced a 50% reduction of 5-HT induced contraction in guinea pig ileum; format: functional, tissue-based
[2] = biological target: T1, 5-hydroxytryptamine receptor 4; test: 5-hydroxytryptamine 4 receptor agonist activity as increased response to electrical stimulation in guinea pig ileum; format: functional, tissue-based
[3] = biological target: 5-hydroxytryptamine receptor 4 (Cavia porcellus) (UniProt O70528); test: 5-hydroxytryptamine 4 receptor agonist activity as percent maximum 5-HT effect in response to electrical stimulation in male guinea pig ileum; format: functional, tissue-based
Chain of 5-hydroxytryptamine receptor 4 (Cavia porcellus) (O70528 whole entry): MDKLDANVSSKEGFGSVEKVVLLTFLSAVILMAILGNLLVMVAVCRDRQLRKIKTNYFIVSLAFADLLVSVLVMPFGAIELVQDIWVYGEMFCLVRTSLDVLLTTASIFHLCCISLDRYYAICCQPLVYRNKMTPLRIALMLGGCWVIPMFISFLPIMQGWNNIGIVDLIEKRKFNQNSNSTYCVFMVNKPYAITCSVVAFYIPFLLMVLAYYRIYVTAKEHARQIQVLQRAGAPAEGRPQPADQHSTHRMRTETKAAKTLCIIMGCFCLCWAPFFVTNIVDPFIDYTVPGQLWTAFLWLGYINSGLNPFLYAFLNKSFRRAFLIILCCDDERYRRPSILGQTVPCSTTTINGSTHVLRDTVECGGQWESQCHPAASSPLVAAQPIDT

[4] = biological target: T2, Serotonin 3 (5-HT3) receptor (Rattus norvegicus, UniProt P35563+Q9JJ16); test: Binding affinity against 5-hydroxytryptamine 3 receptor using [3H]BRL-43694 in rat posterior cortex; format: tissue-based
T2 sequence (P35563 whole entry): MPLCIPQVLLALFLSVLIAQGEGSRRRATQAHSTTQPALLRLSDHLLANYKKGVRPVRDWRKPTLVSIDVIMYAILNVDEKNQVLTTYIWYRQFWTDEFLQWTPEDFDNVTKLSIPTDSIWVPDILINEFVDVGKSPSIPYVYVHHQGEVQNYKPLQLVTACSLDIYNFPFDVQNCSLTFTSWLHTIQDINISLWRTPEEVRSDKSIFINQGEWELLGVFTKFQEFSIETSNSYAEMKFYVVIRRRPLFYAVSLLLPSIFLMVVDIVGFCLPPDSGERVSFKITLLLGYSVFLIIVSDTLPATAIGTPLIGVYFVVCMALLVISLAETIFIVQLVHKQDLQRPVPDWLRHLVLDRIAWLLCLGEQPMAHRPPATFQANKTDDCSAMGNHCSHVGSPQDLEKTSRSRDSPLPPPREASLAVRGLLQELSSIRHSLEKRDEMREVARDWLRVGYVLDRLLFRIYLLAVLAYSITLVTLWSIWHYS
T2 sequence (Q9JJ16 whole entry): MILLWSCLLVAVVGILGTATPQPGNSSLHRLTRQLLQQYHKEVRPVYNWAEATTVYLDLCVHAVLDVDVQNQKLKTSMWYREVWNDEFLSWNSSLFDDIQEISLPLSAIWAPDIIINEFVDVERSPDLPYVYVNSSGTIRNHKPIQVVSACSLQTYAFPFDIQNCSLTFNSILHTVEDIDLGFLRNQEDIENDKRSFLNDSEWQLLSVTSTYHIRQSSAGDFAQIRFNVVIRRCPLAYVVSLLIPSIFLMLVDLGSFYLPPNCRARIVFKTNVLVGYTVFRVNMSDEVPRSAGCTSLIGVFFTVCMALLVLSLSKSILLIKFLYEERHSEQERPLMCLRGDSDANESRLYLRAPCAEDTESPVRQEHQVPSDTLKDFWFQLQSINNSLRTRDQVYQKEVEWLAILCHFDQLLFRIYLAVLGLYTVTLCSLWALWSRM

[5] = biological target: T3, 5-hydroxytryptamine receptor 4 (Rattus norvegicus, UniProt Q62758); test: Binding affinity against 5-hydroxytryptamine 4 receptor using [3H]GR-113808 as radioligand in rat striatum; format: tissue-based
T3 sequence (Q62758 whole entry): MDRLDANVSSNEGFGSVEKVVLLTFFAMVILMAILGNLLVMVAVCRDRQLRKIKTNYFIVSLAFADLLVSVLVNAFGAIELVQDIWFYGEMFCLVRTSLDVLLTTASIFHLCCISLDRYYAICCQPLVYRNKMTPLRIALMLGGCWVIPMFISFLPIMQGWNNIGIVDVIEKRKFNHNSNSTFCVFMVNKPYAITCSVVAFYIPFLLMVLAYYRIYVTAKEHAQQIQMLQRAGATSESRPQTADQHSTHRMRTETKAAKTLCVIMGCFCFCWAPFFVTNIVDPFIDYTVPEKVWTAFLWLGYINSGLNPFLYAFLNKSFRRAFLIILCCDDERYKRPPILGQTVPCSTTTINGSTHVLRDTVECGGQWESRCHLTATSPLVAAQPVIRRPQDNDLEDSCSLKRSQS

[6] = biological target: T3, 5-hydroxytryptamine receptor 4; test: 5-hydroxytryptamine 4 receptor agonist activity was determined by the relaxation of the carbachol-contracted rat esophageal tunica muscularis mucosae; format: functional
[7] = biological target: T1, 5-hydroxytryptamine receptor 4; test: 5-hydroxytryptamine 4 receptor antagonist activity expressed as the concentration which produced a 50% reduction of 5-HT induced contraction in guinea pig ileum; Not evaluable; format: functional, tissue-based

T1 sequence (O70528 whole entry): as the sequence (O70528 whole entry) above

Row | Structure (SMILES) | IC50 [1] [nM] | EC50 [2] [nM] | Activity [3] [%] | Ki [4] [nM] | Ki [5] [nM] | IC50 [6] [nM] | IC50 [7] [nM]
1 | COc1cc(N)c(Cl)cc1C(=O)OC1CCN(C)CC1 | 60 | 110 | 53 | 72 | 23 |  | 
2 | COc1cc(N)c(Cl)cc1C(=O)OC1CC2CCC(C1)N2C (centres undefined) |  | 27 | 54 | 3.2 | 64.3 |  | 
3 | NCCc1c[nH]c2ccc(O)cc12 |  |  | 100 |  |  |  | 
4 | COc1cc(N)c(Cl)cc1C(=O)OCCN1CCCCC1 |  |  | 80 | 782 | 1.07 | 2.4 | 
5 | CCN1CCC(OC(=O)c2cc(Cl)c(N)cc2OC)CC1 |  | 22 | 60 | 118 | 10.3 |  | 
6 | CCN(CC)CCNC(=O)c1cc(Cl)c(N)cc1OC [METOCLOPRAMIDE] |  |  |  | 443 |  |  | 
7 | CCN(CC)CCOC(=O)c1cc(Cl)c(N)cc1OC |  | > 1000 |  | 205 | 5.3 |  | 77
8 | COc1cc(N)c(Cl)cc1C(=O)NC1CN2CCC1CC2 (centres undefined) [ZACOPRIDE] |  | 260 |  | 0.7 | 753 |  | 
9 | CCN1CCCC(OC(=O)c2cc(Cl)c(N)cc2OC)C1 (centres undefined) |  | 44 | 79 |  | 34.5 |  | 
